Among the data in patent US20210276977A1, “BICYCLIC INHIBITORS OF HISTONE DEACETYLASE” (Alkermes, Inc., priority 2018, published 2021) are IC50 values, retold here.

By IC50 is commonly meant the concentration at which inhibition is half-maximal.

Assay [1] concerns the target T1, Full length Human HDAC2 (Homo sapiens, UniProt Q92769).
T1 construct: Full length Human HDAC2; FLAG (C); host or cells: baculovirus expression system
Description: HDAC2 enzymatic assay (deacetylation of FAM-labeled peptide substrate, microfluidic electrophoresis). It counts as biochemical. Particulars: recombinant enzymatic assay, Table 2, class symbols. The protocol: (§1) HDAC2 and HDAC1 Enzymatic Assay (HDAC2 and HDAC1 IC50 Data)
(§2) The following describes an assay protocol for measuring the deacetylation of a peptide substrate by HDAC2 or HDAC1.
(§3) HD AC protein composition and respective substrate peptides are summarized below.
(§4) HD AC reactions are assembled in 384 well plates (Greiner) in a total volume of 20 μL as following:
(§5) HDAC proteins are pre-diluted in the assay buffer comprising: 100 mM HEPES, pH 7.5, 0.1% BSA, 0.01% Triton X-100, 25 mM KCl and dispensed into 384 well plate (10 uL per well).
(§6) Test compounds are serially pre-diluted in DMSO and added to the protein samples by acoustic dispensing (Labcyte Echo). Concentration of DMSO is equalized to 1% in all samples.
(§7) Control samples (0%-inhibition in the absence of inhibitor, DMSO only) and 100%-inhibition (in the absence of enzyme) are assembled in replicates of four and used to calculate the %-inhibition in the presence of compounds.
(§8) At this step compounds can be pre-incubated with enzyme if desired.
(§9) The reactions are initiated by addition of 10 uL of the FAM-labeled substrate peptide pre-diluted in the same assay buffer. Final concentration of substrate peptide is 1 uM (HDAC1-2).
(§10) The reactions are allowed to proceed at room temperature. Following incubation, the reactions are quenched by addition of 50 μL of termination buffer (100 mM HEPES, pH7.5, 0.01% Triton X-100, 0.1% SDS). Terminated plates are analyzed on a microfluidic electrophoresis instrument (Caliper LabChip® 3000, Caliper Life Sciences/Perkin Elmer) which enables electrophoretic separation of de-acetylated product from acetylated substrate. A change in the relative intensity of the peptide substrate and product is the parameter measured. Activity in each test sample is determined as the product to sum ratio (PSR): P/(S+P), where P is the peak height of the product, and S is the peak height of the substrate. Percent inhibition (Pinh) is determined using the following equation: Pinh=(PSR0% inh−PSRcompound)/(PSR0% inh−PSR100% inh)*100, in which: PSRcompound is the product/sum ratio in the presence of compound, PSR0% inh is the product/sum ratio in the absence of compound and the PSR100% inh is the product/sum ratio in the absence of the enzyme. To determine IC50 of compounds (50%-inhibition) the %-inh data (Pinh versus compound concentration) are fit by a 4 parameter sigmoid dose-response model using XLfit software (IDBS).
(§11) In the table, “A” indicates a IC50 value of less than 0.5 μM; “B” a IC50 value from 0.5 μM to 1.0 μM; “C” a IC50 value of greater than 1.0 μM and less than or equal to 2.0 μM; and “D” indicates an IC50 value of greater than 2.0 μM. NT=Not Tested.

Assay [2] deals with T2, Full length Human HDAC1 (Homo sapiens, UniProt Q13547).
T2 construct: Full length Human HDAC1; His (C); FLAG (C); host or cells: baculovirus expression system
As to the kind of experiment: HDAC1 enzymatic assay (deacetylation of FAM-labeled peptide substrate, microfluidic electrophoresis). It is filed as biochemical. Particulars: recombinant enzymatic assay, Table 2, class symbols. The protocol: as §1, §2, §3, §4, §5, §6, §7, §8, §9, §10, §11

For assay [3], the target named is T3, HDAC2 (Homo sapiens, UniProt Q92769).
T3 construct: host or cells: SH-SY5Y cells
As to the kind of experiment: HDAC2 Enzymatic Inhibition Assay in SH-SY5Y Cell Lysate with an Exogenous Substrate (HDAC-Glo 2). Particulars: SH-SY5Y cells, five hours incubation, Table 3, class symbols. It counts as cell-based. The protocol: HDAC2 Enzymatic Inhibition Assay in SH-SY5Y Cell Lysate with an Exogenous Substrate
SH-SY5Y cells (Sigma) were cultured in Eagle's Modified Essential Medium supplemented with 10% fetal bovine serum and pen/strep. Twenty-four hours prior to compound dosing 20 uL of cells were plated in white 384 well plates at a density of 1,500 cells/well. Compounds were serially diluted in neat DMSO and then diluted 1:100 v/v into media without FBS and mixed. Media was removed from the plated cells and the diluted compounds in serum free media (1% v/v final DMSO) were added and incubated at 37° C. for five hours. Ten uL of HDAC-Glo 2 reagent with 0.1% Triton X-100 was then added, the plate was mixed and allowed to develop at room temperature for 100 minutes. Plates were then read with a Spectramax LMax luminometer employing a 0.4 s integration time. Dose response curves were constructed with normalized data where CI-994 at 100 uM was defined as 100% inhibition and DMSO alone as 0% inhibition.
as §11

T1 sequence (Q92769 whole entry): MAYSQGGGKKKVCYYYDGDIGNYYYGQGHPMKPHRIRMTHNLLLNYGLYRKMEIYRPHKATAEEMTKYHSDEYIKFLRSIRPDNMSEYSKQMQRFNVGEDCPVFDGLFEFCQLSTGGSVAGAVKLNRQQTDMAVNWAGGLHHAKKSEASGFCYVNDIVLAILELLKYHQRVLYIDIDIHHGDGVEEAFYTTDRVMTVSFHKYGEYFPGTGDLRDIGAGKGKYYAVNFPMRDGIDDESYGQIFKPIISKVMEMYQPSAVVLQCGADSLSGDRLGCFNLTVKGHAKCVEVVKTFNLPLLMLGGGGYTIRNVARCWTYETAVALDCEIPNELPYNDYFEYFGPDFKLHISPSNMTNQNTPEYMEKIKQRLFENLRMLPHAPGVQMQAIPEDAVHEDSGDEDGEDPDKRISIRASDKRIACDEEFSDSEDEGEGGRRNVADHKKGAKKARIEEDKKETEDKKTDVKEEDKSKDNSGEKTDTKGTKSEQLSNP
T3 sequence (Q92769 whole entry): as above
T2 sequence (Q13547 whole entry): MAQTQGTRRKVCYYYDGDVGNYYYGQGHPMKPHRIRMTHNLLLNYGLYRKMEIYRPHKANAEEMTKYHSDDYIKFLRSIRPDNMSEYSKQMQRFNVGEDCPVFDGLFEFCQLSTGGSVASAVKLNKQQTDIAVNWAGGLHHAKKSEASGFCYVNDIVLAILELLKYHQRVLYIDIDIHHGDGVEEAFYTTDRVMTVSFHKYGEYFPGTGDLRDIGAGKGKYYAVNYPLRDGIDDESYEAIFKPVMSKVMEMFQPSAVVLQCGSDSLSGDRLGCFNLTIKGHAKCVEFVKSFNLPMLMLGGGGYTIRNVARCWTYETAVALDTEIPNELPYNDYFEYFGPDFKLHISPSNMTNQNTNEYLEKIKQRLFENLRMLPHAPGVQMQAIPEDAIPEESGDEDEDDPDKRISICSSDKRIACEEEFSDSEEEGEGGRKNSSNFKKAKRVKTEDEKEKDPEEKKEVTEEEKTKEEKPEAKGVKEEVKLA

With `Cc1nccc(CC2CN(C(=O)Nc3nc(-c4ccc(F)cc4F)ccc3N)C2)n1` [Compound 15], the IC50 in assay [1], in assay [2] and in assay [3] was greater than 2000 nM throughout.
Consider `Cc1nccnc1CC1CN(C(=O)Nc2nc(-c3ccc(F)cc3F)ccc2N)C1` [Compound 16], for which the IC50 in assay [1] was 1000 to 2000 nM; in assay [2], 500 to 1000 nM; in assay [3] it was 500 to 1000 nM.
For `Cc1cc(CC2CN(C(=O)Nc3nc(-c4ccc(F)cc4F)ccc3N)C2)ncn1` [Compound 19], the IC50 in assay [1] was 1000 to 2000 nM; in assay [2], 1000 to 2000 nM; in assay [3] it was 500 to 1000 nM.
As to `Nc1ccc(-c2ccc(F)cc2F)nc1NC(=O)N1CC(Cc2ncc(F)cn2)C1` [Compound 21], the IC50 in assay [1] was 500 to 1000 nM; in assay [2] it was less than 500 nM; in assay [3] it was 500 to 1000 nM.
`Nc1ccc(-c2ccc(F)cc2F)nc1NC(=O)N1CC(Cc2ncco2)C1` [Compound 22]: the IC50 in assay [1], in assay [2] and in assay [3] was 500 to 1000 nM in each case.
Turning to `Nc1ccc(-c2ccc(F)cc2F)nc1NC(=O)N1CC(Cc2cccnn2)C1` [Compound 23], the half-inhibitory concentration (IC50) fell in the range of 500 to 1000 nM in assay [1], 1000 to 2000 nM in assay [2] and 500 to 1000 nM in assay [3].
As for `Cc1ccc(CC2CN(C(=O)Nc3nc(-c4ccc(F)cc4F)ccc3N)C2)nn1` [Compound 24], the IC50 was 1000 to 2000 nM in assay [1], 500 to 1000 nM in assay [2] and less than 500 nM in assay [3].
The matching figures for `Nc1ccc(-c2ccccc2F)nc1NC(=O)N1CC(Cc2ncc(F)cn2)C1` [Compound 26]: 500 to 1000 nM, 500 to 1000 nM and 1000 to 2000 nM.
With `Nc1ccc(-c2ccc(F)cc2)nc1NC(=O)N1CC(Cc2ncc(F)cn2)C1` [Compound 27], the IC50 in assay [1] was less than 500 nM; in assay [2], less than 500 nM; in assay [3] it was 500 to 1000 nM.
In the case of `Nc1ccc(-c2ccc(F)cc2F)nc1NC(=O)N1CC(Cn2cccn2)C1` [Compound 30], the IC50 in assay [1], in assay [2] and in assay [3] was 1000 to 2000 nM throughout.
For the compound `Nc1ccc(-c2ccc(F)cc2F)nc1NC(=O)N1CC(Cn2ccnc2)C1` [Compound 31], the IC50 in assay [1], in assay [2] and in assay [3] was greater than 2000 nM throughout.
On to `Nc1ccc(-c2ccc(F)cc2F)nc1NC(=O)N1CC(C(F)(F)c2ncccn2)C1` [Compound 33], for which the values for the IC50 in assay [1], in assay [2] and in assay [3] were 500 to 1000 nM, 500 to 1000 nM and 1000 to 2000 nM, respectively.
As for `Nc1ccc(-c2ccc(F)cc2F)nc1NC(=O)N1CC(C(F)(F)c2ncc(F)cn2)C1` [Compound 34], the values for the IC50 in assay [1], in assay [2] and in assay [3] were 500 to 1000 nM, 500 to 1000 nM and greater than 2000 nM, respectively.
With `Nc1ccc(-c2ccccc2F)nc1NC(=O)N1CC(C(F)(F)c2ncccn2)C1` [Compound 35], the IC50 lay in the range of 500 to 1000 nM in assay [1], 1000 to 2000 nM in assay [2] and 500 to 1000 nM in assay [3].
As for `Nc1ccc(-c2ccc(F)cc2)nc1NC(=O)N1CC(C(F)(F)c2ncccn2)C1` [Compound 36], the results for the IC50 in assay [1], in assay [2] and in assay [3] were less than 500 nM, less than 500 nM and 1000 to 2000 nM, respectively.
With `Nc1ccc(-c2ccccc2F)nc1NC(=O)N1CC(C(F)(F)c2ncc(F)cn2)C1` [Compound 37], the IC50 in assay [1], in assay [2] and in assay [3] was 500 to 1000 nM throughout.
For `Nc1ccc(-c2ccc(F)cc2)nc1NC(=O)N1CC(C(F)(F)c2ncc(F)cn2)C1` [Compound 38], the IC50 is less than 500 nM in assay [1], less than 500 nM in assay [2] and 500 to 1000 nM in assay [3].
Turning to `Nc1ccc(-c2ccc(F)cc2F)nc1NC(=O)N1CC(C(F)c2ncccn2)C1` (stereo not drawn) [Compound 40], the IC50 in assay [1] is 1000 to 2000 nM; in assay [2], 500 to 1000 nM; in assay [3], 500 to 1000 nM.
As for `CC(c1ncccn1)C1CN(C(=O)Nc2nc(-c3ccc(F)cc3F)ccc2N)C1` (stereo not drawn) [Compound 42], the IC50 in assay [1] is 1000 to 2000 nM; in assay [2] it was 500 to 1000 nM; in assay [3], less than 500 nM.
For `Nc1ccc(-c2ccc(F)cc2F)nc1NC(=O)N1CC(CCc2ccccn2)C1` [Compound 43] the same measures were greater than 2000 nM, 500 to 1000 nM and greater than 2000 nM.
Turning to `Nc1ccc(-c2ccc(F)cc2F)nc1NC(=O)N1CC(CCc2ncccn2)C1` [Compound 44], the IC50 in assay [1], in assay [2] and in assay [3] was greater than 2000 nM throughout.
Regarding `Cc1nnc(CC2CN(C(=O)Nc3nc(-c4ccc(F)cc4F)ccc3N)C2)s1` [Compound 45], the IC50 in assay [1] was in the range of 1000 to 2000 nM; in assay [2], 500 to 1000 nM; in assay [3], 500 to 1000 nM.
In the case of `Nc1ccc(-c2ccc(F)cc2F)nc1NC(=O)N1CC(Cc2nnc(C(F)(F)F)s2)C1` [Compound 46], the half-maximal inhibitory concentration (IC50) was 1000 to 2000 nM in assay [1], 1000 to 2000 nM in assay [2] and greater than 2000 nM in assay [3].
In the case of `Cn1ccnc1CC1CN(C(=O)Nc2nc(-c3ccc(F)cc3F)ccc2N)C1` [Compound 47], the 50% inhibitory concentration (IC50) in assay [1] fell in the range of 1000 to 2000 nM; in assay [2] it was 500 to 1000 nM; in assay [3], 1000 to 2000 nM.
With `CC(c1ncccn1)C1CN(C(=O)Nc2nc(-c3ccc(F)cc3)ccc2N)C1` (stereo not drawn) [Compound 57], the IC50 in assay [1] is 500 to 1000 nM; in assay [2], less than 500 nM; in assay [3], 1000 to 2000 nM.
The matching figures for `Nc1ccc(-c2ccc(F)cc2F)nc1NC(=O)N1CC(Oc2ncccn2)C1` [Compound 59]: 500 to 1000 nM, less than 500 nM and greater than 2000 nM.
For `Nc1ccc(-c2ccc(F)s2)nc1NC(=O)N1CC(Cc2ncc(F)cn2)C1` [Compound 61], the IC50 was 500 to 1000 nM in assay [1], less than 500 nM in assay [2] and 1000 to 2000 nM in assay [3].
Turning to `Nc1ccc(-c2ccc(F)cc2)nc1NC(=O)N1CC(Cc2ncccn2)C1` [Compound 64], the IC50 in assay [1] was 1000 to 2000 nM; in assay [2], less than 500 nM; in assay [3], 500 to 1000 nM.
For `Cc1cnc(CC2CN(C(=O)Nc3nc(-c4ccc(F)cc4)ccc3N)C2)nc1` [Compound 65] the same measures were 500 to 1000 nM, less than 500 nM and 500 to 1000 nM.
The matching figures for `Nc1ccc(-c2ccc(F)s2)nc1NC(=O)N1CC(Cc2ncccn2)C1` [Compound 66]: 500 to 1000 nM, less than 500 nM and 1000 to 2000 nM.
For `Nc1ccc(-c2cccs2)nc1NC(=O)N1CC(Cc2ncccn2)C1` [Compound 68] the same measures were 1000 to 2000 nM, less than 500 nM and 500 to 1000 nM.
As to `Nc1ccc(-c2cccs2)nc1NC(=O)N1CC(Cc2ncc(F)cn2)C1` [Compound 69], the IC50 in assay [1] is 1000 to 2000 nM; in assay [2], less than 500 nM; in assay [3] it was 1000 to 2000 nM.
As for `Nc1ccc(-c2cccs2)nc1NC(=O)N1CC(C(F)(F)c2ncccn2)C1` [Compound 70], the IC50 in assay [1] was 500 to 1000 nM; in assay [2], less than 500 nM; in assay [3] it was 1000 to 2000 nM.
For `Cn1ccnc1CC1CN(C(=O)Nc2nc(-c3ccc(F)cc3)ccc2N)C1` [Compound 71] the same measures were greater than 2000 nM, 500 to 1000 nM and 500 to 1000 nM.
The matching figures for `Cc1ccnc(CC2CN(C(=O)Nc3nc(-c4ccc(F)cc4)ccc3N)C2)n1` [Compound 72]: 500 to 1000 nM, less than 500 nM and 1000 to 2000 nM.
